These are literature values, as cited in PubChem BioAssay AID1259409 (Chemical Carcinogenesis Research Information System (CCRIS), 2018).

Several values for one entry are separate records, joined by “and”; a condition that tells them apart may be missing. Identical values can stand only once.

The data set relates to rodent chemically induced tumor inhibition, incidence and multiplicity. As to the kind of experiment: CCRIS tumor inhibitor studies. As to conditions: for tumour outcome (control, treated, inhibition, significance): Species: RAT.

On to `CC1=C(/C=C/C(C)=C\C=C\C(C)=C\C(=O)O)C(C)(C)CCC1`, for which the outcome (Carcinogen: 4-(Methylnitrosamino)-1-(3-pyridyl)-1-butanone [64091-91-4] (NNK), Dose [Inhibitor]: 0, 7.5, 15, 30 mg/kg in diet for 17 wks, study duration 17 wks, Dose [Inhibitor]: 0, 7.5, 15, 30 mg/kg in diet for 17 wks, study duration 17 wks, Route [Inhibitor]: Oral, Species: Mouse, Strain/Sex: A/J/Male, Target Tissue: Type of Lesion: Lung, Dose [Carcinogen]: 100 mg NNK/kg bw once at 8 wks of age, study duration 17 wks) is 14/14 (100%); 13/14 (93%); 14/14 (100%); 11/13 (85%). Further, the “tumour outcome (control, treated, inhibition, significance)” value is 25/25 (100%), 25/25 (100%), 0%, not significant (Carcinogen: N-METHYL-N-NITROSOUREA, 684-93-5, Dose [Inhibitor]: 0, 3.3 UG/KG OF DIET FOR 147 D (STUDY DURATION: 150 D), Route [Inhibitor]: ORAL, Strain/Sex: SPRAGUE-DAWLEY/FEMALE, Target Tissue: Type of Lesion: MAMMARY GLAND: ADENOCARCINOMA, Dose [Carcinogen]: 50 MG/KG BW ONCE 3 D BEFORE INITIAL INHIBITOR DOSE, Promoter: NONE USED); 25/25 (100%), 25/25 (100%), 0%, not significant (Carcinogen: N-METHYL-N-NITROSOUREA, 684-93-5, Dose [Inhibitor]: 0, 10 UG/KG OF DIET FOR 147 D (STUDY DURATION: 150 D), Route [Inhibitor]: ORAL, Strain/Sex: SPRAGUE-DAWLEY/FEMALE, Target Tissue: Type of Lesion: MAMMARY GLAND: ADENOCARCINOMA, Dose [Carcinogen]: 50 MG/KG BW ONCE 3 D BEFORE INITIAL INHIBITOR DOSE, Promoter: NONE USED); 22/34 (65%), 8/40 (20%), 70%, p<0.001 (Carcinogen: N-METHYL-N-NITROSOUREA, 684-93-5, Dose [Inhibitor]: 0, 50 MG/KG OF DIET BEGINNING 1 WK PRIOR TO CARCINOGEN DOSE (STUDY DURATION: 14 MO), Route [Inhibitor]: ORAL, Strain/Sex: WISTAR-UNILEVER/MALE, Target Tissue: Type of Lesion: PROSTATE: ADENOCARCINOMA, Dose [Carcinogen]: 30 MG/KG BW ONCE ADMINISTERED TO RATS PRETREATED WITH 50 MG OF CYPROTERONE ACETATE BY GAVAGE FOR 21 CONSECUTIVE DAYS THE, Promoter: TESTOSTERONE, 58-22-0); 25/25 (100%), 24/25 (96%), 4%, not significant (Carcinogen: N-METHYL-N-NITROSOUREA, 684-93-5, Dose [Inhibitor]: 0, 60 MG/KG OF DIET FOR 147 D (STUDY DURATION: 150 D), Route [Inhibitor]: ORAL, Strain/Sex: SPRAGUE-DAWLEY/FEMALE, Target Tissue: Type of Lesion: MAMMARY GLAND: ADENOCARCINOMA, Dose [Carcinogen]: 50 MG/KG BW ONCE 3 D BEFORE INITIAL INHIBITOR DOSE, Promoter: NONE USED); 23/24 (96%), 9/12 (75%), 22%, p=0.1 and 29/30 (97%), 24/30 (80%), 18%, p=0.1 (Carcinogen: N-METHYL-N-NITROSOUREA, 684-93-5, Dose [Inhibitor]: 0, 60 MG/KG OF DIET FOR DURATION OF STUDY BEGINNING 1 WK POST CARCINOGEN DOSE (STUDY DURATION: 5 MO), Route [Inhibitor]: ORAL, Strain/Sex: SPRAGUE-DAWLEY/FEMALE, Target Tissue: Type of Lesion: MAMMARY GLAND: TUMOR, Dose [Carcinogen]: 50 MG/KG BW ONCE, Promoter: NONE USED); 22/34 (65%), 7/38 (18%), 72%, p<0.001 (Carcinogen: N-METHYL-N-NITROSOUREA, 684-93-5, Dose [Inhibitor]: 0, 100 MG/KG OF DIET BEGINNING 1 WK PRIOR TO CARCINOGEN DOSE (STUDY DURATION: 14 MO), Route [Inhibitor]: ORAL, Strain/Sex: WISTAR-UNILEVER/MALE, Target Tissue: Type of Lesion: PROSTATE: ADENOCARCINOMA, Dose [Carcinogen]: 30 MG/KG BW ONCE ADMINISTERED TO RATS PRETREATED WITH 50 MG OF CYPROTERONE ACETATE BY GAVAGE FOR 21 CONSECUTIVE DAYS THE, Promoter: TESTOSTERONE, 58-22-0). In addition, the “tumour outcome (control, treated, inhibition, significance)” value (Carcinogen: N-METHYL-NITROSOUREA [684-93-5], Dose [Inhibitor]: 60 MG/KG DIET BEGINNING 3 D POST-CARCINOGEN DOSE (STUDY DURATION: 150 D), Route [Inhibitor]: ORAL, Strain/Sex: SPRAGUE-DAWLEY/FEMALE, Target Tissue: Type of Lesion: MAMMARY GLAND: ADENOCARCINOMA, Dose [Carcinogen]: 50 MG/KG BW ONCE AT 50 D OF AGE) is on record as 25/25 (100%); 24/25 (96%), 4%, not significant; the “tumour outcome (control, treated, inhibition, significance)” value (Carcinogen: N-NITROSO-N-METHYLUREA, 684-93-5, Dose [Inhibitor]: 0, 60 MG/KG OF DIET FOR 3 MO BEGINNING 1 WK POST CARCINOGEN DOSE (STUDY DURATION: 100 D), Route [Inhibitor]: ORAL, Strain/Sex: SPRAGUE-DAWLEY/FEMALE, Target Tissue: Type of Lesion: MAMMARY GLAND: TUMOR, Dose [Carcinogen]: 50 MG/KG BW ONCE, Promoter: NONE USED) is 100%, 58%, 42%, p<0.002; the “tumour outcome (control, treated, inhibition, significance)” value (Carcinogen: N-NITROSO-N-METHYLUREA, 684-93-5, Dose [Inhibitor]: 0, 60 MG/KG OF DIET FOR 4.5 MO BEGINNING 1 WK POST CARCINOGEN DOSE (STUDY DURATION: 100 D), Route [Inhibitor]: ORAL, Strain/Sex: SPRAGUE-DAWLEY/FEMALE, Target Tissue: Type of Lesion: MAMMARY GLAND: TUMOR, Dose [Carcinogen]: 50 MG/KG BW ONCE, Promoter: NONE USED) is 96%, 75%, 22%, not significant; the “tumour outcome (control, treated, inhibition, significance)” value (Carcinogen: N-NITROSO-N-METHYLUREA, 684-93-5, Dose [Inhibitor]: 0, 120 MG/KG OF DIET FOR 3 MO BEGINNING 1 WK POST CARCINOGEN DOSE (STUDY DURATION: 100 D), Route [Inhibitor]: ORAL, Strain/Sex: SPRAGUE-DAWLEY/FEMALE, Target Tissue: Type of Lesion: MAMMARY GLAND: TUMOR, Dose [Carcinogen]: 50 MG/KG BW ONCE, Promoter: NONE USED) was 100%, 25%, 75%, p<0.001; the “tumour outcome (control, treated, inhibition, significance)” value (Carcinogen: N-NITROSO-N-METHYLUREA, 684-93-5, Dose [Inhibitor]: 0, 120 MG/KG OF DIET FOR 4.5 MO BEGINNING 1 WK POST CARCINOGEN DOSE (STUDY DURATION: 100 D), Route [Inhibitor]: ORAL, Strain/Sex: SPRAGUE-DAWLEY/FEMALE, Target Tissue: Type of Lesion: MAMMARY GLAND: TUMOR, Dose [Carcinogen]: 50 MG/KG BW ONCE, Promoter: NONE USED) is 96%, 42%, 56%, p<0.001.

`CC(=O)[C@@H]1C[C@@H]2C[C@H]1[C@@H](N=C=S)C2`: the “tumour outcome (control, treated, inhibition, significance)” value (Carcinogen: 7,12-DIMETHYLBENZ[A]ANTHRACENE, 57-97-6, Dose [Inhibitor]: 0, 75 UMOL/D IN 0.5 ML EMULPHOR EL-620 FOR 5 CONSECUTIVE DAYS BEGINNING AT 47 D OF AGE (STUDY DURATION: 155 D), Route [Inhibitor]: GAVAGE, Strain/Sex: SPRAGUE-DAWLEY/FEMALE, Target Tissue: Type of Lesion: MAMMARY GLAND: TUMOR, Dose [Carcinogen]: 8 MG IN 1 ML SESAME OIL ONCE AT 50 D OF AGE, Promoter: NONE USED) is recorded as 17/25 (68%), 5/20 (25%), 63%, p<0.05 and the “tumour outcome (control, treated, inhibition, significance)” value (Carcinogen: 7,12-DIMETHYLBENZ[A]ANTHRACENE, 57-97-6, Dose [Inhibitor]: 0, 150 UMOL/D IN 0.5 ML EMULPHOR EL-620 FOR 5 CONSECUTIVE DAYS BEGINNING AT 47 D OF AGE (STUDY DURATION: 155 D), Route [Inhibitor]: GAVAGE, Strain/Sex: SPRAGUE-DAWLEY/FEMALE, Target Tissue: Type of Lesion: MAMMARY GLAND: TUMOR, Dose [Carcinogen]: 8 MG IN 1 ML SESAME OIL ONCE AT 50 D OF AGE, Promoter: NONE USED) is reported as 17/25 (68%), 5/20 (25%), 63%, p<0.05.

For the compound `NC(N)=NC(=O)c1nc(Cl)c(N)nc1N`, the “tumour outcome (control, treated, inhibition, significance)” value (Carcinogen: AZOXYMETHANE, 25843-45-2, Dose [Inhibitor]: 0, 5 MG/KG BW 1/2 D FOR 35 WK (STUDY DURATION: 35 WK), Route [Inhibitor]: SUBCUTANEOUS, Strain/Sex: WISTAR/MALE, Target Tissue: Type of Lesion: COLON: TUMOR, Dose [Carcinogen]: 7.4 MG/KG BW 1/WK FOR 10 WK, Promoter: NONE USED) is on record as 15/19 (79%), 13/17 (76%), 4%, not significant; the “tumour outcome (control, treated, inhibition, significance)” value (Carcinogen: AZOXYMETHANE, 25843-45-2, Dose [Inhibitor]: 0, 7.5 MG/KG BW 1/2 D FOR 35 WK (STUDY DURATION: 35 WK), Route [Inhibitor]: SUBCUTANEOUS, Strain/Sex: WISTAR/MALE, Target Tissue: Type of Lesion: COLON: TUMOR, Dose [Carcinogen]: 7.4 MG/KG BW 1/WK FOR 10 WK, Promoter: NONE USED) is reported as 15/19 (79%), 7/18 (39%), 51%, p<0.001; the “tumour outcome (control, treated, inhibition, significance)” value (Carcinogen: N-METHYL-N'-NITRO-N-NITROSOGUANIDINE, 70-25-7, Dose [Inhibitor]: 0, 2.5 MG/KG BW 1/2 D BEGINNING 25 WK POST FIRST CARCINOGEN DOSE AND CONTINUING FOR DURATION OF STUDY (STUDY DURATION: 5, Route [Inhibitor]: SUBCUTANEOUS, Strain/Sex: WISTAR/MALE, Target Tissue: Type of Lesion: STOMACH: ADENOCARCINOMA, Dose [Carcinogen]: 50 UG/ML IN DRINKING WATER FOR 25 WK, Promoter: NONE USED) is 10/20 (50%), 5/17 (29%), 42%, not significant; the “tumour outcome (control, treated, inhibition, significance)” value (Carcinogen: N-METHYL-N'-NITRO-N-NITROSOGUANIDINE, 70-25-7, Dose [Inhibitor]: 0, 5 MG/KG BW 1/2 D BEGINNING 25 WK POST FIRST CARCINOGEN DOSE AND CONTINUING FOR DURATION OF STUDY (STUDY DURATION: 52, Route [Inhibitor]: SUBCUTANEOUS, Strain/Sex: WISTAR/MALE, Target Tissue: Type of Lesion: STOMACH: ADENOCARCINOMA, Dose [Carcinogen]: 50 UG/ML IN DRINKING WATER FOR 25 WK, Promoter: NONE USED) is listed as 10/20 (50%), 3/20 (15%), 70%, p<0.05.
